# Measurements: article PMC7796559, “Connecting the conformational behavior of cyclic octadepsipeptides with their ionophoric property and membrane permeability” (Organic & biomolecular chemistry, 2020)
# Where two headings read alike, the source gives them in different places. Non-standard residues stand in square brackets, D forms with d. Residues, ends and D or L forms follow the SMILES beside them. dPhLac = O=C(O)[C@H](O)Cc1ccccc1; NMeL = CN[C@@H](CC(C)C)C(=O)O; dLac = C[C@@H](O)C(=O)O
# Columns and labels:
# nematodes = settings: cited from earlier work
# [1] = PAMPA with and without potassium salt; format: in vitro ADME; settings: for recovery at 10 μM / Papp at 10 µM / Papp: PAMPA; for PAMPA permeability (in words): independent of the addition of potassium salt
# Method: PAMPA was performed using a 96-well filter donor plate with 0.45 μm hydrophobic Immobilon-P membrane supports (Millipore MAIPNTR10) and a 96-well Teflon acceptor plate (Millipore MSSACCEPTOR). The donor plate was prepared by applying 5 μL of 1% (w/v) soybean lecithin (90%, Alfa Aesar) in n-dodecane to each filter. The acceptor plate was prepared by addition of 300 μl of pH = 7.4 phosphate-buffered saline (PBS) with 5% DMSO to each well. Donor solutions composed of PBS with 5% DMSO, 10 μM carbamazepine standard, and 10 μM compound 1, 2 or 8 were prepared with and without additional KCl (0.27 mM or 100.27 mM K^+ concentration) before addition of 150 μl to each donor well, with all conditions run in quadruplicate. The donor plate was then loaded into the acceptor plate and was left in a sealed, damp chamber at 25 °C for approximately 17 hours (exact times recorded and used in calculation of Pe). The plates were then separated, and 100 μl of solution from each well was transferred to another plate for LC-MS analysis. Permeabilities were calculated identically to a previous study.[80]
# [2] = Site-to-site exchange rates from EXSY peaks in EASY-ROESY; format: physicochemical; settings: for kex / k1 / k2: EASY-ROESY, mixing time 100 ms, CDCl3; for k1 / k2: site-to-site exchange rate
# Method: Following ref. [76] and [77], site-to-site rates were determined in a straightforward way by taking the logarithm of matrix A = M × M0^−1 containing the volumes of cross- and diagonal peaks of the exchanging sites (Hα of Mle^2, Mle^6 and Mle^26) divided by their magnetic fraction M0 (i.e. the relative intensities of the corresponding resonances in the ^1H NMR spectrum) as an approximation of M(0): (1) M=e^Ltm×M0 (2) A=(IAA/M0AIAB/M0BIAC/M0CIBA/M0AIBB/M0BIBC/M0CICA/M0AICB/M0BICC/M0C) (3) 1/tmln(A)=(kBA+kCA−R1kABkACkBA−kAB−R10kBC0−kAC−R1)
# L is the difference between the kinetic matrix K containing the site-to-site rate constants and the relaxation matrix R, tm is the mixing time used in the ROESY experiment, and Ri are the auto-relaxation rates of the exchanging sites in the symmetric (A) and asymmetric (B, C) conformations.
# EXSY peak volumes extracted from the ROESY spectrum (shown schematically in Fig. 13) and the magnetic fractions in the 1H NMR spectrum are inserted in matrix A (eqn 4). Site-to-site rates are obtained by taking the logarithm of matrix A and dividing the result by the mixing time (0.1 s) (eqn 5): kAB = kAC = 0.09 s^−1 and kBA = kCA = 0.16 s^−1 (averaged rates). Calculations were carried out in Mathematica 12.0.[78] (4) A=(77.9/11.52/1.51.55/1.51.59/1236/1.50/1.51.75/10/1.5200/1.5) (5) 1/0.1ln(A)=(43.55240.090.100.1450.580.000.170.0048.9)
# efflux transporter P-gp = tested on: efflux transporter P-gp; parameters: method as in PMID 25131706; settings: cited from earlier work
# [3] = Cation binding in apolar solvent (chloroform) by NMR; format: physicochemical; settings: CDCl3; solid KSCN and sonication (1) or saturated KSCN solution in D2O, phase separation (2)
# Method: It is known that valinomycin, a cyclic dodecadepsipeptide, as well as some crown ethers can bind cations even in an apolar solvent.[59]–[61] This ability is an indirect evidence that the ion-bound complex may exist inside the membrane interior, i.e. that ion transport across a membrane is possible. To assess if the cyclic octadepsipeptides are also able to bind cations in an apolar solvent, KSCN was added to a solution of 1 in chloroform and sonicated for several hours.
# Caco-2 = tested on: Caco-2; parameters: method as in PMID 26067057, PMID 32121188; settings: cited from earlier work
# [4] = parameters: method as in PMID 26067057; settings: PAMPA; cited from earlier work
# [5] = parameters: method as in PMID 22138252, PMID 24061379; settings: cited from earlier work
# [6] = parameters: method as in PMID 22138252, PMID 24061379; settings: cited from earlier work; remark: listed apart in the source
# mycobacteria = tested on: mycobacteria; parameters: method as in PMID 5879163; settings: cited from earlier work
# ryanodine-binding = tested on: ryanodine-binding; parameters: method as in PMID 20057513; settings: cited from earlier work
# [7] = pH 7.4, PAMPA, + 100 mM KCl, read-out: Average Recovery Rate
# [8] = pH 7.4, PAMPA, without additional KCl, read-out: Average Recovery Rate
# [9] = without additional KCl (0.27 mM K+), PBS pH 7.4 with 5% DMSO, 10 μM compound, approx. 17 hours, 25 °C, read-out: Average Permeability with standard deviation in brackets
# [10] = worked example, mixing time 0.1 s
smiles,measurement,setting,value
"CC(C)CC1C(=O)OC(Cc2ccccc2)C(=O)N(C)C(CC(C)C)C(=O)OC(C)C(=O)N(C)C(CC(C)C)C(=O)OC(Cc2ccccc2)C(=O)N(C)C(CC(C)C)C(=O)OC(C)C(=O)N1C (single isomer, unassigned) [enantiomer of PF1022A]",Anthelmintic activity (in words),nematodes,no anthelmintic activity
CC(C)C[C@H]1C(=O)O[C@H](Cc2ccccc2)C(=O)N(C)[C@@H](CC(C)C)C(=O)O[C@H](C)C(=O)N(C)N(CC(C)C)C(=O)O[C@H](Cc2ccccc2)C(=O)N(C)N(CC(C)C)C(=O)O[C@H](C)C(=O)N1C [Bis-aza analog (8)],recovery at 10 μM,[1]; [7],6.8%
same,recovery at 10 μM,[1]; [8],26.2%
same,Papp at 10 µM,[1]; [9],0.08 ×10⁻⁶ cm/s
same,PAMPA permeability (in words),[1],no permeability was detected
same,kex,[2],0.19 s⁻¹
same,k1,[2],0.17 s⁻¹
same,k2,[2],0.02 s⁻¹
same,Biological activity weaker by a factor compared to 1,nematodes,5–10
"NC(=O)N1c2ccccc2C=Cc2ccccc21 [Carbamazepine, carbamazepine, reference compound]",Papp at 10 µM,"[1]; pH 7.4, 10 μM standard in donor solutions, with and without 100 mM KCl, read-out: Permeability of PAMPA control",7.94 to 11.1 ×10⁻⁶ cm/s
same,recovery at 10 μM,"[1]; pH 7.4, 10 μM standard in donor solutions, with and without 100 mM KCl, read-out: Recovery rate of PAMPA control",85.4 to 200%
"CC(C)C[C@H]1C(=O)O[C@H](Cc2ccc(N3CCOCC3)cc2)C(=O)N(C)[C@@H](CC(C)C)C(=O)O[C@H](C)C(=O)N(C)[C@@H](CC(C)C)C(=O)O[C@H](Cc2ccc(N3CCOCC3)cc2)C(=O)N(C)[C@@H](CC(C)C)C(=O)O[C@H](C)C(=O)N1C [Emodepside (2), reference compound]",recovery at 10 μM,[1]; [7],27.3%
same,recovery at 10 μM,[1]; [8],78.7%
same,PAMPA permeability (in words),[1],no permeability was detected
same,kex,[2],0.18 s⁻¹
same,k1,[2],0.12 s⁻¹
same,k2,[2],0.06 s⁻¹
same,Anthelmintic activity relative to PF1022A (in words),nematodes,increased anthelmintic activity
same,Substrate of the efflux transporter P-gp,efflux transporter P-gp,substrate
same,Conformation detected in chloroform after contact with KSCN,[3],the symmetric conformation is present almost exclusively
"CC(C)[C@H]1C(=O)O[C@H](C(C)C)C(=O)N(C)[C@@H](C(C)C)C(=O)O[C@H](C(C)C)C(=O)N(C)[C@@H](C(C)C)C(=O)O[C@H](C(C)C)C(=O)N1C [Enniatin B, enniatin B]",Permeability in Caco-2 permeability assay,Caco-2,610 ×10⁻⁶ cm/s
same,log Pe,[4],−4.73
CC(C)C[C@H]1C(=O)O[C@H](Cc2ccc(I)cc2)C(=O)N(C)[C@@H](CC(C)C)C(=O)O[C@H](C)C(=O)N(C)[C@@H](CC(C)C)C(=O)O[C@H](Cc2ccccc2)C(=O)N(C)[C@@H](CC(C)C)C(=O)O[C@H](C)C(=O)N1C [Mono-iodo analog (11)],kex,[2],0.26 s⁻¹
same,k1,[2],0.17 s⁻¹
same,k2,[2],0.09 s⁻¹
CC(C)CC1C(=O)OC(Cc2ccccc2)C(=O)N(C)C(CC(C)C)C(=O)OC(C)C(=O)N(C)C(CC(C)C)C(=O)OC(Cc2ccccc2)C(=O)N(C)C(CC(C)C)C(=O)OC(C)C(=O)N1C (stereo not drawn) [PF1022A (1)],Papp,"[1]; pH 7.4, PAMPA, + 100 mM KCl (100.27 mM K+), PBS pH 7.4 with 5% DMSO, 10 μM compound, approx. 17 hours, 25 °C, read-out: Average Permeability with standard deviation in brackets",0.02 ×10⁻⁶ cm/s
same,recovery at 10 μM,[1]; [7],57.4%
same,recovery at 10 μM,[1]; [8],18.4%
same,Papp,[1]; [9],0.06 ×10⁻⁶ cm/s
same,PAMPA permeability (in words),[1],no permeability was detected
same,kex,[2],0.25 s⁻¹
same,k1,[2],0.16 s⁻¹
same,k2,[2],0.09 s⁻¹
same,kAB = kAC (averaged site-to-site rate),[2]; [10],0.09 s⁻¹
same,kBA = kCA (averaged site-to-site rate),[2]; [10],0.16 s⁻¹
same,Conformation detected in chloroform after contact with KSCN,[3],only the symmetric conformation could be detected
"CC(C)C1OC(=O)C(C(C)C)N(C)C1=O (stereo not drawn) [compound 3, 3,6-di-(propan-2-yl)-4-methyl-morpholine-2,5-dione]",Antimicrobial activity (in words),[5],moderate
same,Antioxidant activity (in words),[6],moderate
"CC(C)C[C@H]1C(=O)O[C@H](C(C)C)C(=O)N(C)[C@@H](CC(C)C)C(=O)O[C@H](C(C)C)C(=O)N1C [compound 4, cyclo-(N-methyl L-leucine D-hydroxyisovaleric acid)2]",Activity against mycobacteria (in words),mycobacteria,no activity
"CCCCC[C@H]1OC(=O)[C@H](C)N(C)C(=O)[C@@H](CCCCC)OC(=O)[C@H](C)N(C)C(=O)[C@@H](CCCCC)OC(=O)[C@H](C)N(C)C(=O)[C@@H](CCCCC)OC(=O)[C@H](C)N(C)C1=O [compound 7, verticilide]",Ryanodine binding (in words),ryanodine-binding,ryanodine-binding inhibitor
CC(C)C[C@H]1C(=O)O[C@H](Cc2ccccc2)C(=O)N(C)[C@@H](CC(C)C)C(=O)O[C@H](C)C(=O)N(C)[C@@H](CC(C)C)C(=O)N2CCC[C@@H]2C(=O)N2CCC[C@H]2C(=O)O[C@H](C)C(=O)N1C [compound 9] (cyclo([dLac][NMeL][dPhLac][NMeL][dLac][NMeL][dP]P)),Biological activity higher by a factor compared to 1,nematodes,2
CC(C)C[C@H]1C(=O)O[C@H](Cc2ccccc2)C(=S)N(C)[C@@H](CC(C)C)C(=O)O[C@H](C)C(=S)N(C)[C@@H](CC(C)C)C(=O)O[C@H](Cc2ccccc2)C(=S)N(C)[C@@H](CC(C)C)C(=O)O[C@H](C)C(=S)N1C [compound 10],Activity increased (times) compared to 1,nematodes,2.5
